Among the data in paper PMC7459823, “Characterization of Five Novel Anti-MRSA Compounds Identified Using a Whole-Animal Caenorhabditis elegans/Galleria mellonella Sequential-Screening Approach” (Antibiotics, 2020) are Z-Score, MIC and median post-infection survival values, retold here.

In general, MIC refers to the lowest concentration that inhibits growth of the organism.

Where only a bound is given, the exact number is not on record here.

The subject of assay [1] is MRSA-MW2 infection of C. elegans. The assay can be described thus: C. elegans–MRSA-MW2 high-throughput screen (Z-score, alive versus dead worms). It counts as in vivo, Caenorhabditis elegans. Particulars: screening concentration 2.86 µg/mL, hits Z > 2. From the text: The five compounds: (4,4′,4″-(4-propyl-[1H]-pyrazole-1,3,5-triyl)trisphenol, PPT; (1S,2S)-2-[2-[[3-(1H-benzimidazol-2-yl)propyl]methylamino]ethyl]-6-fluoro-1,2,3,4-tetrahydro-1-(1-methylethyl)-2- naphthalenyl cyclopropanecarboxylate dihydrochloride, NNC; 4,5,6,7-tetrabromobenzotriazole, TBB; 3-[2-[2-chloro-4-[3-(2,6-dichlorophenyl)-5-(1-methylethyl)-4-isoxazolyl]methoxy]phenyl] ethenyl] benzoic acid, GW4064; and N-(cyclopropylmethoxy)-3,4,5-trifluoro-2-[(4-iodo-2-methylphenyl)amino] benzamide, PD198306) were purchased from Tocris Bioscience at the following levels of purity: PPT: >99.7%, NNC: >98%, TBB: >99%, GW4064: >97%, and PD198306: 98.8%. […] Hits were identified based on Z-scores. Z-scores are calculated from the ratio of alive versus dead worms after treatment with test compounds and represents the number of standard deviations (SD) the test compound differs from the mean using the formula Z = (x − μ)/σ; where x is the raw sample score, μ is the mean of the population and σ is the standard deviation of the population. Samples with Z > 2σ are considered hits.

The next assay concerns Klebsiella pneumoniae. The assay can be described thus: Broth microdilution MIC, Klebsiella pneumoniae. It counts as cell-based. Particulars: read-out: MIC. On the procedure: In vitro antibacterial activities were determined using the broth microdilution method. Assays were performed as described in Clinical and Laboratory Standards Institute protocols in triplicate using cation-adjusted Muller–Hinton broth (Becton Dickinson and Company, Franklin Lakes, NJ, USA) in 96-well plates with a total assay volume of 100 µL. Two-fold serial dilutions of test compounds were prepared over the concentration range of 1–64 µg/mL. The bacterial concentration was adjusted to OD600 = 0.06. […] A 10 µL aliquot from each well in the MIC assays was plated onto Muller–Hinton agar (Becton Dickinson and Company, Franklin Lakes, NJ, USA) and incubated overnight at 37 °C. The lowest concentration of compound for which no growth was observed on agar plates was reported as the minimal bactericidal concentration (MBC).
A general note: Dilution methods test growth across graded concentrations, often in twofold steps.

Assay [2] has as its system MRSA MW2 infection of Galleria mellonella larvae. The assay can be described thus: G. mellonella–MRSA survival assay. It is filed as in vivo. Conditions: larvae infected with MRSA MW2 5 × 10^5 CFU, compound 10 mg/kg 2 h after infection, monitored 120 h; untreated 1 day. On the procedure:
Larvae were infected with MRSA MW2 (5 × 10^5 CFU) in the left rear proleg, and after two hours, the compounds were introduced separately at 10 mg/kg into the right rear proleg and larvae survival was monitored for 120 h.
Assays were performed as described previously. Briefly, sixteen randomly selected G. mellonella larvae (Vanderhorst, Inc., St. Mary’s, OH, USA) between 300–350 mg were used for each test group. MRSA-MW2 was grown in Tryptic Soy Broth (TSB), washed with phosphate buffered saline (PBS, pH = 7.4), and diluted to OD600 = 0.3 before inoculation into G. mellonella larvae. A 10-μL inoculum was injected into the last left proleg using a 10-μL Hamilton syringe. After 2 h, compounds were administered into the last right proleg and larvae were incubated at 37 °C. G.mellonella survival was monitored for 120 h, and death was confirmed when there was no response. Killing curves and differences in survival were analyzed by the Kaplan–Meier method using GraphPad Prism version 8 (GraphPad Software, La Jolla, CA, USA). Statistical analysis (Kruskal–Wallis test) was carried out using the same program.

On to `Cc1cc(I)ccc1Nc1c(C(=O)NOCC2CC2)cc(F)c(F)c1F` [PD198306, N-(Cyclopropylmethoxy)-3,4,5-trifluoro-2-[(4-iodo-2-methylphenyl)amino]-benzamide], for which the Z-Score in assay [1] was 3.43. Further, the MIC in the assay with Klebsiella pneumoniae is above 64 µg/mL. In addition, in assay [2], the median post-infection survival was found to be 2 days.
